The source of these data is patent US5071859A, “N-substituted azaheterocyclic carboxylic acids and pharmaceutical uses” (priority 1988, dated 1991).

Structures can show the parent of a compound that is named as a salt.

The first experiment concerns [^3 H]-GABA uptake. Nature of the experiment: in vitro inhibition of [^3 H]-GABA uptake (method of Fjalland). Type of experiment: biochemical, Male Wistar rat (cortical tissue). To be noted: rat cortical tissue homogenate; 60 min at 30° C.; pH 7.5; ligand 0.2 nM. As for the experimental part:
Male Wistar rat cortical tissue was gently homogenized by hand using a glass/PTFE homogenizer in 10 volumes of 0.32 M sucrose. Incubation was performed in a 40 mM tris HCl buffer (pH 7.5 at 30° C.) containing […], […], 4 mM MgSO4, 2.3 mM CaCl2 and 10 mM glucose, for 60 min. at 30° C. Ligand concentration was 0.2 nM.
The compound `O=C(O)[C@@H]1CCCN(CCOC=C(c2ccccc2)c2ccccc2)C1` [Example 2, (R)-1-[2-[[2,2-Diphenylethenyl]oxy]ethyl]-3-piperidine carboxylic acid hydrochloride] gave a concentration for half-maximal inhibition (IC50) of 104 nM. On to `Cc1ccsc1C(=COCCN1CCC[C@@H](C(=O)O)C1)c1sccc1C` [Example 12, (R)-1-[2-[[2,2-bis(3-Methyl-2-thienyl)ethenyl]oxy]ethyl]-3-piperidine carboxylic acid], for which inhibition was half-maximal at 8 nM (IC50).

As for `Cc1ccccc1C(=COCCN1CCC=C(C(=O)O)C1)c1ccccc1C` [Example 13, 1-[2-[[2,2-bis(2-Methylphenyl)ethenyl]oxy]ethyl]-1,2,5,6-tetrahydro-3-pyridine carboxylic acid hydrochloride], the IC50 was determined as 26 nM. In the case of `Cc1ccccc1C(=COCCN1CCC[C@@H](C(=O)O)C1)c1ccc(F)cc1C` [Example 14, (R)-1-[2-[[2-(4-Fluoro-2-methylphenyl)-2-(2-methylphenyl)ethenyl]oxy]ethyl]-3-piperidine carboxylic acid hydrochloride], the 50% inhibitory concentration (IC50) turned out to be 30 nM. With `Cc1ccccc1C(=COCCN1CCC[C@@H](C(=O)O)C1)c1ccccc1C` [Example 17, (R)-1-[2-[[2,2-bis(2-Methylphenyl)ethenyl]oxy]ethyl]-3-piperidine carboxylic acid hydrochloride], the IC50 worked out at 15 nM. The compound `CCc1ccccc1C(=COCCN1CCC=C(C(=O)O)C1)c1ccccc1CC` [Example 23, 1-[2-[[2,2-bis(2-Ethylphenyl)ethenyl]oxy]ethyl]-1,2,5,6-tetrahydro-3-pyridine carboxylic acid hydrochloride] gave an IC50 of 47 nM. On to `Cc1ccccc1C(=COCCN1CCC[C@@H](C(=O)O)C1)c1ccccc1Cl` [Example 30, (R)-1-[2-[[2-(2-Chlorophenyl)-2-(2-methylphenyl)ethenyl]oxy]ethyl]-3-piperidine carboxylic acid hydrochloride], for which the IC50 came to 12 nM.

Turning to `O=C(O)[C@@H]1CCCN(CCOCC(c2ccccc2)c2ccccc2)C1` [Example 33, (R)-1-[2-[[2,2-Diphenylethyl]oxy]ethyl]-3-piperidine carboxylic acid], the IC50 was 127 nM.

In the next experiment the test system is GABA uptake from the synaptic cleft into presynaptic nerve terminals and glial cells.
Test: not given
The following applies: cited from earlier work.
Take `O=C(O)C1CCCNC1` (stereo not shown) [nipecotic acid, piperidine-3-carboxylic acid]: the “inhibitor of GABA uptake from the synaptic cleft” value is listed as “potent inhibitor of GABA uptake”.

The next experiment deals with GABA uptake.
Test: not given
The following applies: oral; cited from earlier work.
Turning to `O=C(O)C1CCCN(CCC=C(c2ccccc2)c2ccccc2)C1` (stereo not shown) [SK&F 89976A, N-(4,4-diphenyl-3-butenyl)nipecotic acid], the “orally active inhibitors of GABA uptake” value is recorded as “orally active inhibitors of GABA uptake”. On to `O=C(O)C1=CCCN(CCC=C(c2ccccc2)c2ccccc2)C1` [SK&F 100330A, N-(4,4-diphenyl-3-butenyl)guvacine], for which the “orally active inhibitors of GABA uptake” value was “orally active inhibitors of GABA uptake”. Consider `O=C(O)CC1CCN(CCC=C(c2ccccc2)c2ccccc2)C1` (stereo not drawn) [SK&F 100561, N-(4,4-diphenyl-3-butenyl)homo-β-proline], for which the “orally active inhibitors of GABA uptake” value was “orally active inhibitors of GABA uptake”. For `O=C(O)C1CCCN(CCC=C(c2ccccc2)c2cccs2)C1` (stereo not shown) [SK&F 100604J, N-(4-phenyl-4-(2-thienyl)-3-butenyl)nipecotic acid], the “orally active inhibitors of GABA uptake” value is “orally active inhibitors of GABA uptake”.

A word on the IC50: it is the concentration that inhibits the measured activity by half. Higher therefore signals weaker potency in that assay.
